Results from patent publication EP4140481A1, “PROTEIN-OLIGOMER BINDING AGENTS AND THERAPEUTIC USES THEREOF” (Galyan Bio, Inc., priority 2021, dated 2023).

Legend:
mHTT = assay: Immunohistochemistry of nuclear diffuse mHTT in brain tissue from the R6/2 study; format: in vivo, R6/2 mice; details: 33 mg/kg i.p. QD; treated animals n= 9 versus vehicle treated TG mice; p = 0.01
Description: Preparation of Immunohistology slides - Brain tissue collected within the animal study was prepared for IHC studies by Charles River staff. The brains were fixed by immersion in 4% paraformaldehyde for at least 24 h after which brain samples were cryoprotected by 30% sucrose solution for 72 h. Finally, the brain samples were flash-frozen in liquid nitrogen and stored at -80 °C. The brain samples were cut using a microtome cryostat system, producing coronal brain tissue sections of 40 µm thickness. Those were mounted on individual adhesive-coated microscope glass slides with frosted ends.
Staining - Goat anti-Rabbit IgG (H+L) Alexa Fluor 647 (1:500, ThermoFisher Invitrogen) was used as a secondary antibody for binding to CBP antibody. […]
The blocking buffer was freshly prepared and consisted of PBS (Sigma-Aldrich) with 5% normal goat serum (NGS), 0.2% BSA, 0.2% lysine and 0.2% glycine. […] On day six, samples were washed and then incubated with DAPI containing mounting medium Fluoroshield (Sigma-Aldrich), in order to counterstain the nuclei and preserve the fluorescence. […]
Results - Figures 23A-23F show the distinction of inclusion bodies (IB) and diffuse species of mHTT by confocal fluorescence imaging. […] Consequently, this distinction of diffuse mHTT and IBs was implemented in the analysis macro to quantify the different species of mHTT within striatum and cortex of R6/2 mice. […]

Oral bioavailability = details: mouse, in vivo, mice
[1] = biological target: T1, Wild type (wt) α-Synuclein (Homo sapiens, UniProt P37840); assay: Dynamic Light Scattering (DLS), induced aggregation; format: biochemical
T1 construct: purchased rPeptide, Watkinsville, Georgia S-1001-2
Description: In order to induce the formation of smaller oligomers of the α-Synuclein protein it was hypothised that using DMSO as a solvent induces oligomer formation Kostka et al., THE JOURNAL OF BIOLOGICAL […] VOL. 283, NO. 16, pp. 10992-11003, April 18, 2008). In order to assess the ability of certain compounds to induce formation of aggregates from protein-oligomers, the following experiments were conducted.
Proteins were ultracentrifuged with 50,000 rpm (rounds per minute) for one hour at 2 °C. The supernatant was used for DLS measurements. DLS measurements were conducted with Malvern Zetasizer Nano (Malvern Panalytical Ltd, United Kingdom).
Wild type (wt) α-Synuclein (catalog S-1001-2, rPeptide, Watkinsville, Georgia) was solved in 20 mM phosphate, pH 7.4 buffer.
As mentioned, it was described that 1% DMSO was used to induce α-Synuclein to form small oligomers (Kostka et al., THE JOURNAL OF BIOLOGICAL […] VOL. 283, NO. 16, pp. 10992-11003, April 18, 2008). 1% DMSO (Sigma) was used to trigger small oligomer formation of wt α-Synuclein. 1% DMSO was added to wt α-Synuclein to measure the effect of DMSO alone on wt α-Synuclein. With DLS there is no volume difference detectable between wt α-Synuclein with and without 1% DMSO (Figure 44). […] 1% DMSO induces the formation of small oligomers, which interact with Compound 4 and form larger aggregates of the oligomers.

C. elegans = C. elegans growth and development (toxicity) assay; format: in vivo; details: doses 32nM to 500µM, hatching to first day of adulthood
Description: Delivery strategy: The indicated compound dosage is based on the total volume of the plates with the assumption that the water-soluble compound diffuses throughout the agar. The compound is dissolved in a working solution and then combined directly with the food bacteria before seeding on agar plates. The food spots are dried slowly, allowing the compound to diffuse into the food bacteria and the agar for 24 hours.
Growth and development assay results: High-resolution imaging and automated detection were used to precisely measure the growth rate of animals from hatching to the first day of adulthood (total of 4 days). The C. elegans growth and development assay is highly sensitive and widely used in toxicology studies. Performing this test over a range of doses helps to identify a set of doses that have a physiological impact and exclude dose ranges that are likely too toxic to benefit lifespan.

[2] = by volume, 70 µM equimolar Compound 4 solved in methanol
[3] = by volume, equimolar Compound 4 solved in DMSO (1% DMSO)

SMILES | Nuclear diffuse mHTT reduction in the cortex (mHTT) [%] | bioavailability (Oral bioavailability) [%] | aggregation of wt α-Synuclein ([1]; Compound 4 solved in DMSO) | % Volume, Peak 2 [1, 2] [%] | % Volume, Peak 3 [1, 2] [%] | Size, Peak 1 [1, 2] [nm] | Size, Peak 2 [1, 2] [nm] | Size, Peak 3 [1, 2] [nm] | % Volume, Peak 1 [1, 3] [%] | % Volume, Peak 2 [1, 3] [%] | Size, Peak 1 [1, 3] [nm] | Size, Peak 2 [1, 3] [nm] | highest concentration at which no adverse effects were detected (C. elegans) [µM]
Cc1[nH]c2ccc(C(=O)NCCN(C(C)C)C(C)C)cc2c1C [Compound 22] | 40 | 10 |  |  |  |  |  |  |  |  |  |  | 
CCc1c(C)[nH]c2ccc(C(=O)NCCN(CC)CC)cc12 [Compound 4, N-(2-(diethylamino)ethyl)-3-ethyl-2-methyl-1H-indole-5-carboxamide] |  |  | forms aggregates | 0.3 | 0.3 | 6.139 | 80.87 | 338.7 | 96.2 | 3.8 | 144.0 | 4794 | 4
